# From patent US8377918B2 (ACC Therapeutics Inc, priority 2005, dated 2013)
# Where two headings read alike, the source gives them in different places.
# Tests used:
# PC-3 cells = experiment: MTT cell proliferation assay, PC-3 prostate cancer cells; assay type: cell-based, human
# Protocol: (§1) FIG. 8. […] Prostate cancer cells PC-3 and DU145 were seeded in 96-well plates at 1×10^4 cells/well. […] The cell proliferation was assayed by culturing the cells for 24 h, then adding 10 μl of MTT reagent with incubation for 2 h. The reaction was stopped by adding 100 μl of solubilization solution. The relative cell proliferation was obtained by the reading at 590 nm which was recorded in a spectrophotometer, and normalized to the value of control.
# FIG. 9. […] A, Cisplatin-resistant ovarian cancer cell line A2780/CP70, and B, prostate cancer cells PC-3 were seeded in 96-well plates at 1×10^4 cells/well and incubated overnight.
# (§2) FIG. 17. […] A, the prostate cancer cells PC-3 and DU145; B, colon cancer cells Colo-205 and HCT-116; C, lung cancer cells A549 and H460 cells were plated at 1×10^4 cells per well in a 96 well plate in 100 μl of media.
# FIG. 18. […] A and B, the prostate cancer cells PC-3 and DU145; C, colon cancer cells Colo-205 and HCT-116; D, lung cancer cells A549 and H460 cells were plated at 1×10^4 cells per well in a 96 well plate in 100 μl of media. […] The cell proliferation was analyzed by MTT assay.
# (§3) FIG. 19. […] A, prostate cancer cells PC-3; and B, DU145 cells were plated at 1×10^4 cells per well in a 96 well plate in 100 μl of media. […] Cell proliferation was examined by MTT assay.
# (§4) FIG. 23. […] Cell proliferation was examined by MTT assay.
# H460 cells = experiment: MTT cell proliferation assay, H460 lung cancer cells; assay type: cell-based, human; details: H460, 15 μM apigenin, 24 h
# Protocol: FIG. 17. […] A, the prostate cancer cells PC-3 and DU145; B, colon cancer cells Colo-205 and HCT-116; C, lung cancer cells A549 and H460 cells were plated at 1×10^4 cells per well in a 96 well plate in 100 μl of media. […] FIG. 18. […] A and B, the prostate cancer cells PC-3 and DU145; C, colon cancer cells Colo-205 and HCT-116; D, lung cancer cells A549 and H460 cells were plated at 1×10^4 cells per well in a 96 well plate in 100 μl of media. […] The cell proliferation was analyzed by MTT assay. […] FIG. 22. […] A, colon cancer cells Colo-205 and HCT-116; B, lung cancer cells A549 and H460 cells were plated at 1×10^4 cells per well in a 96 well plate the day before the treatment. […] Cell proliferation was examined by MTT assay. […] FIG. 25.
# Colo-205 cells = experiment: MTT cell proliferation assay, Colo-205 colon cancer cells; assay type: cell-based, human; details: colo-205, 15 μM apigenin, 24 h
# Protocol: FIG. 17. […] A, the prostate cancer cells PC-3 and DU145; B, colon cancer cells Colo-205 and HCT-116; C, lung cancer cells A549 and H460 cells were plated at 1×10^4 cells per well in a 96 well plate in 100 μl of media. […] FIG. 20. […] A, the prostate cancer cells PC-3 and DU145; B, colon cancer cells Colo-205 and HCT-116; C, lung cancer cells A549 and H460 cells were plated at 1×10^4 cells per well in a 96 well plate. […] Cell proliferation was examined by MTT assay. […] FIG. 22. […] A, colon cancer cells Colo-205 and HCT-116; B, lung cancer cells A549 and H460 cells were plated at 1×10^4 cells per well in a 96 well plate the day before the treatment. […] Cell proliferation was examined by MTT assay. […] FIG. 24. […] The IC50 values for inhibiting cell proliferation were calculated from cell proliferation assay as described above.
# [1] = test system: tumors induced by A2780/CP70 cells; experiment: Blood vessel numbers of A2780/CP70 tumors on CAM; assay type: in vivo, chicken embryo; details: 2.5 μM CDDP alone, 10 days
# Protocol: (§5) FIG. 4. […] The A2780/CP70 cells were seeded into 100 mm dish and grown to 90-100% confluence. […] In 10 days, the tumors were harvested and weighed. The blood vessel numbers of the tumor were counted under×100. At least five areas were determined. The data are mean±SD from two experiments (n=8). A, representative tumor morphology; B, tumor weight; C, relative numbers of blood vessels.
# A2780/CP70 cells [2] = experiment: MTT cell proliferation assay, A2780/CP70 ovarian cancer cells; assay type: cell-based, human; details: for IC50: 24 h
# Protocol: (§6) FIG. 1. […] (A) A2780/CP70 cells and human fibroblast GM847 cells were seeded in 96-well plate at 4×10^3 cells per well and incubated overnight. […] The cells were incubated for 24 h. Cell proliferation was determined by MTT reduction. […] Cells were trypsinized, harvested, washed once with PBS buffer, and stained using the Annexin-V-Folus Kit as per the manufacture's instructions. […] After incubation, all cells were collected and total DNA was isolated. Eight (8) μg of DNA was resolved on 1.8% agarose gel. […] (D) Treatment of GM847 cells was the same as that of 5D. […] Cleavage of caspase-3 and PARP was detected by western-blot.
# FIG. 3. […] A2780/CP70 cells were seeded in 96-well plates and incubated overnight. The old medium was discarded and fresh medium with cisplatin (CDDP) in the presence or absence of apigenin (Api) was added. In 24 h, the cell proliferation was determined by means of MTT reduction method.
# FIG. 9. […] A, Cisplatin-resistant ovarian cancer cell line A2780/CP70, and B, prostate cancer cells PC-3 were seeded in 96-well plates at 1×10^4 cells/well and incubated overnight. […] In 24 h, the cell proliferation was assayed by using a MTT assay kit. *indicates significant difference compared to cisplatin alone (p<0.01).
# [3] = test system: tumors induced by A2780/CP70 cells; experiment: Tumor weight of A2780/CP70 tumors on CAM; assay type: in vivo, chicken embryo; details: 2.5 μM CDDP, 10 days
# Protocol: as §5
# A2780/CP70 cells [4] = experiment: Annexin V apoptosis assay, A2780/CP70; assay type: cell-based, human; details: A2780/CP70, 10 μM cisplatin, 24 h
# Protocol: as §6
# FIG. 10. […] The cisplatin-resistant ovarian cancer A2780/CP70 cells were seeded in a petri dish. […] After treatment, the cells were collected and the relative cellular apoptosis was analyzed by Annexin V Kit (Roche), and compared to the control.
# [5] = test system: PC-3 prostate cancer cells; experiment: Cell survival by MTT reduction assay with taxol, PC-3; assay type: cell-based, human; details: for IC50: Homo sapiens, 48 h, read-out: IC50 of cell viability (cell survival)
# Protocol: (§7) FIG. 11. […] PC-3 prostate cancer cells and A2780/CP70 ovarian cancer cells were seeded in 96-well plates and incubated overnight. […] After 48 h, cell survival was determined by means of MTT reduction assay.
# [6] = test system: A2780/CP70 ovarian cancer cells; experiment: Cell survival by MTT reduction assay with taxol, A2780/CP70; assay type: cell-based, human; details: for IC50: Homo sapiens, A2780/CP70, 48 h, 48 h, read-out: IC50 of cell viability (cell survival)
# Protocol: as §7
# DU145 cells = experiment: MTT cell proliferation assay, DU145 prostate cancer cells; assay type: cell-based, human; details: DU145, 15 μM apigenin, 24 h
# Protocol: as §1, §2, §3
# FIG. 21. […] A, the prostate cancer cells PC-3 and DU145; B and C, colon cancer cells Colo-205 and HCT-116 were plated at 1×10^4 cells per well in a 96 well plate in 100 μl of media a day before the treatment.
# as §4
smiles,measurement,setting,value
N.N.[Cl][Pt][Cl] [cisplatin],reduction of cisplatin IC50 by apigenin,"PC-3 cells; PC-3, 10 μM apigenin",7 fold
same,IC50,"PC-3 cells; PC-3, in the presence of 10 μM apigenin, 24 h, read-out: cisplatin concentration giving 50% inhibition of cell proliferation",3000 nM
same,decrease of IC50 by combination with apigenin,H460 cells,20 fold
same,decrease of IC50 by apigenin,Colo-205 cells,3 fold
same,effect on blood vessel formation,[1],slightly inhibited the blood vessel formation
same,reduction of cisplatin IC50 by apigenin,"A2780/CP70 cells [2]; A2780/CP70, 10 μM apigenin",4 fold
same,IC50,"A2780/CP70 cells [2]; A2780/CP70, cisplatin alone, read-out: concentration of cisplatin needed to inhibit 50% of cell proliferation (IC50)",~20 µM
same,IC50,"A2780/CP70 cells [2]; A2780/CP70, with addition of 10 μM apigenin, read-out: IC50 of cisplatin for cell proliferation",5 µM
same,effect on tumor growth,[3],slightly inhibited tumor growth
same,apoptosis,A2780/CP70 cells [4],low levels of apoptosis
CC(=O)O[C@H]1C(=O)[C@@]2(C)[C@H]([C@H](OC(=O)c3ccccc3)[C@]3(O)C[C@H](OC(=O)[C@H](O)[C@@H](NC(=O)c4ccccc4)c4ccccc4)C(C)=C1C3(C)C)[C@]1(OC(C)=O)CO[C@@H]1C[C@@H]2O [taxol],IC50,"[5]; PC-3, taxol alone",577 nM
same,IC50,"[5]; PC-3, taxol with 20 μM apigenin",50.3 nM
same,"taxol IC50 with apigenin, fold less than taxol alone","[5]; PC-3, 20 μM apigenin",11 fold
same,"taxol IC50 with apigenin, fold less than taxol alone","[6]; A2780/CP70, 20 μM apigenin",2 fold
same,IC50,"[6]; A2780/CP70, taxol alone",503 nM
same,IC50,"[6]; A2780/CP70, taxol with 20 μM apigenin",225 nM
COc1cccc2c1C(=O)c1c(O)c3c(c(O)c1C2=O)C[C@@](O)(C(=O)CO)C[C@@H]3O[C@H]1C[C@H](N)[C@H](O)[C@H](C)O1 [doxorubicin],reduction of IC50 of doxorubicin by apigenin,"PC-3 cells; PC-3, 15 μM apigenin, 24 h",2 fold
same,decrease of IC50 by combination with apigenin,H460 cells,20 fold
"O=c1[nH]cc(F)c(=O)[nH]1 [fluorouracil, reference compound]",reduction of IC50 of fluorouracil by apigenin,DU145 cells,70%
CO[C@@]12[C@H](COC(N)=O)C3=C(C(=O)C(C)=C(N)C3=O)N1C[C@@H]1N[C@@H]12 [mitomycin C],decrease of IC50 by apigenin,Colo-205 cells,7 fold
